Among the data in patent US20160122342A1, “ENHANCER OF ZESTE HOMOLOG 2 INHIBITORS” (GLAXOSMITHKLINE INTELLECTUAL PROPERTY (NO.2) LIMITED, priority 2013, published 2016) are IC50 values, retold here.

The target in the assay is T1, EZH2 within the PRC2 complex (Homo sapiens, UniProt Q15910).
T1 construct: FLAG; made in house; host or cells: Sf9 cells
T1 sequence (Q15910 whole entry): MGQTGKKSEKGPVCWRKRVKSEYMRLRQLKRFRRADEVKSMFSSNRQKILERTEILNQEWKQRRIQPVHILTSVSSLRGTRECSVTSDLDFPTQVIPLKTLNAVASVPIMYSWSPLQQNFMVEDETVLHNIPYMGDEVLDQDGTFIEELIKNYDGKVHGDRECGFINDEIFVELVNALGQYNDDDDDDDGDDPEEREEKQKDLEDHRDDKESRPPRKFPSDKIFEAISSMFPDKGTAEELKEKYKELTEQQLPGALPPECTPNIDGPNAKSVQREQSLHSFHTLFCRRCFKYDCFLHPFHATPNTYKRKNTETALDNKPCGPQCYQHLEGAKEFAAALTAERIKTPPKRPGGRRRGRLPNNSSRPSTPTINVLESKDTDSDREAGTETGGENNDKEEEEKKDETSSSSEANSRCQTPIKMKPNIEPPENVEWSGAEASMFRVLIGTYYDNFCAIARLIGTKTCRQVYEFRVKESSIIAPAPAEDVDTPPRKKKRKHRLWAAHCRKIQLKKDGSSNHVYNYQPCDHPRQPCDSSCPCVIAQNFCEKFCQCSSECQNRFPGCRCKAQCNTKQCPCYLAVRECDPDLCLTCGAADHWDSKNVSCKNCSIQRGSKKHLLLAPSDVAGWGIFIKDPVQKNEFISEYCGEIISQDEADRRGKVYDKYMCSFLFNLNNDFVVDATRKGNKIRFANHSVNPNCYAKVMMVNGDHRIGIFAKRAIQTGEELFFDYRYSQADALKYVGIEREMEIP
T1 sequence (O75530 whole entry partner): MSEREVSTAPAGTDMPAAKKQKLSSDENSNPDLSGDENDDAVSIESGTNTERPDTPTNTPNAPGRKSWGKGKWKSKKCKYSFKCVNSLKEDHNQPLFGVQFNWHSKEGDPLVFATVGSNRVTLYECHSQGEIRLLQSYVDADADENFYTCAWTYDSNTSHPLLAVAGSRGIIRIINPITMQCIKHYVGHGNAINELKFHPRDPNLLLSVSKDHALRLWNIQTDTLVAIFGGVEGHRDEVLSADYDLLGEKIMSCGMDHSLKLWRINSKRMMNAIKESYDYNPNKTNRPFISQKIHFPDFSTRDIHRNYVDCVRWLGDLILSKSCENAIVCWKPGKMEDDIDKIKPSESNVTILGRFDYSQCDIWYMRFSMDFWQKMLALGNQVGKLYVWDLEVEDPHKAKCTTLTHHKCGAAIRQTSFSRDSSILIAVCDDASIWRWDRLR
T1 sequence (Q15022 whole entry partner): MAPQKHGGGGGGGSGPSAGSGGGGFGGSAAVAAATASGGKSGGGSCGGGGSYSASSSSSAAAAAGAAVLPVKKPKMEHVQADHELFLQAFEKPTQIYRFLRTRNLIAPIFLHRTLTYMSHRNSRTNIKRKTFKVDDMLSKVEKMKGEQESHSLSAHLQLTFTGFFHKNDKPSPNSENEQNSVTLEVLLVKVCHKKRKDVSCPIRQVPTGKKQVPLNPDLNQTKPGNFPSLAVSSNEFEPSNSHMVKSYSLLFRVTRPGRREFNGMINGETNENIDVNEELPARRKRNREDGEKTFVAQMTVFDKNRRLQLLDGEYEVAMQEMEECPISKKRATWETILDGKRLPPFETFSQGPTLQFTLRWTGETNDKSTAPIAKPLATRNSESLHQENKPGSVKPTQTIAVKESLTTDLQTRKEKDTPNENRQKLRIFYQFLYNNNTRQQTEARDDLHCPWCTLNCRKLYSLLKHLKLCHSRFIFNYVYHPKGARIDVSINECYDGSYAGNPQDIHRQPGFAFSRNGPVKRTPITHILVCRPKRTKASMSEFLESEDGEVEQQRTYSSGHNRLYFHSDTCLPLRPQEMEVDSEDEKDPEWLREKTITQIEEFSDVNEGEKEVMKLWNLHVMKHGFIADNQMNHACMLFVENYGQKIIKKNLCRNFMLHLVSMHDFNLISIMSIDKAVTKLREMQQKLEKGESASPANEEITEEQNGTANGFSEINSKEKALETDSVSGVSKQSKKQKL
T1 sequence (Q09028 whole entry partner): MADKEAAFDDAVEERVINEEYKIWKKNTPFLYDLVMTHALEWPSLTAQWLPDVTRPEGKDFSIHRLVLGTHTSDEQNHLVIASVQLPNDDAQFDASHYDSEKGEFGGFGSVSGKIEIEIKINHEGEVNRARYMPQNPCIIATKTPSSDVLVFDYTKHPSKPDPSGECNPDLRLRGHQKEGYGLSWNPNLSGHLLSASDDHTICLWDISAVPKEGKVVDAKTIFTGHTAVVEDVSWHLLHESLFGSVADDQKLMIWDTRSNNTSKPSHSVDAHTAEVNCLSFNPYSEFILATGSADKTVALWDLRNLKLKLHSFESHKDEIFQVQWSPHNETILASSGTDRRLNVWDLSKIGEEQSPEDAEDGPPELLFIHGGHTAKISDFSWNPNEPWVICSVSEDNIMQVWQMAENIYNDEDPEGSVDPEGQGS
T1 sequence (Q6ZN18 whole entry partner): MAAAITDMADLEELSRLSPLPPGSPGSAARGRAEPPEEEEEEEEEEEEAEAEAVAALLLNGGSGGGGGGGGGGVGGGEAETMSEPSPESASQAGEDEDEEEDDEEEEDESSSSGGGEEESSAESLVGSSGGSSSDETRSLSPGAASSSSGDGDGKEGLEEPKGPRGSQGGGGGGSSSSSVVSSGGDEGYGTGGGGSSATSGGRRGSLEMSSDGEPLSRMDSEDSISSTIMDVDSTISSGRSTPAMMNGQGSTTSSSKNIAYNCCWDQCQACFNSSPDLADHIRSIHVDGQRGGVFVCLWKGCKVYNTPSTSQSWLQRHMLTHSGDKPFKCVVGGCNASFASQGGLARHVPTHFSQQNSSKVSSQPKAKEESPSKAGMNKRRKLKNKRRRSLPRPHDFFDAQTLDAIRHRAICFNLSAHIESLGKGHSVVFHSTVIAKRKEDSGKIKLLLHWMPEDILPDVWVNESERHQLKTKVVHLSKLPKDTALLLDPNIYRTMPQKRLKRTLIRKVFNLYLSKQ
The assay can be described thus: Assay Protocol 2: EZH2 methyltransferase scintillation proximity assay, biotinylated histone H3 peptide substrate. It counts as biochemical. Particulars: SPA, 3H-SAM, biotinylated unmethylated histone H3K27 peptide substrate, 5-member PRC2 complex. How it is done:
Compounds contained herein were evaluated for their ability to inhibit the methyltransferase activity of EZH2 within the PRC2 complex. […] The peptides were captured on streptavidin-coated SPA beads and the resulting signal was read on a ViewLux plate reader. • 4. Prepare 10 mM stock of compounds from solid in 100% DMSO. • 5. […] Dispense 10 nL of compound from the dilution plate into reaction plates (Corning, 384-well polystyrene NBS, Cat#3673). Prepare the following solutions: • 7. 1× Base Buffer, 50 mM Tris-HCl, pH 8, 2 mM MgCl2: Per 1 L of base buffer, combine 1 M Tris-HCl, pH 8 (50 mL), 1 M MgCl2 (2 mL), and distilled water (948 mL). • 8. 1× Assay Buffer: Per 10 mL of 1× Assay Buffer, combine 1× Base Buffer (9.96 mL), 1 M DTT (40 uL), and 10% Tween-20 (1 uL) to provide a final concentration of 50 mM Tris-HCl, pH 8, 2 mM MgCl2, 4 mM DTT, 0.001% Tween-20. • 9. 2× Enzyme Solution: […] SPA Bead Solution: Per 1 mL of SPA Bead Solution, combine Streptavidin coated SPA beads (PerkinElmer, Cat# RPNQ0261, 40 mg) and 1× Assay Buffer (1 mL) to provide a working concentration of 40 mg/mL. • 11. 2× Substrate Solution: Per 10 mL of 2× Substrate Solution, combine 40 mg/mL SPA Bead Solution (375 uL), 1 mM biotinylated histone H3K27 peptide (200 uL), 12.5 uM 3H-SAM (240 uL; 1 mCi/mL), 1 mM cold SAM (57 uL), and 1× Assay Buffer (9.13 mL) to provide a final concentration of 0.75 mg/mL SPA Bead Solution, 10 uM biotinylated histone H3K27 peptide, 0.15 uM 3H-SAM (˜12 uCi/mL 3H-SAM), and 2.85 uM cold SAM. • 12. 2.67× Quench Solution: Per 10 mL of 2.67× Quench Solution, combine 1× Assay Buffer (9.73 mL) and 10 mM cold SAM (267 uL) to provide a final concentration of 100 uM cold SAM. • 3. […] Dispense 5 uL/well of 1× Assay Buffer to column 18 (low control reactions). • 11. Dispense 5 uL/well of 2× Substrate Solution to columns 1-24 (note: substrate solution should be mixed to ensure homogeneous bead suspension before dispensing into matrix reservoir). • 12. Dispense 5 uL/well of 2× Enzyme Solution to columns 1-17, 19-24. • 13. Incubate the reaction for 60 min at room temperature. • 5. Dispense 6 uL/well of the 2.67× Quench Solution to columns 1-24. • 6. Seal assay plates and spin for ˜1 min at 500 rpm. • 7. Dark adapt plates in the ViewLux instrument for 15-60 min. • 2. Read the assay plates on the Viewlux Plate Reader utilizing the 613 nm emission filter or clear filter (300 s exposure). Reagent addition can be done manually or with automated liquid handler. Percent inhibition was calculated relative to the DMSO control for each compound concentration and the resulting values were fit using standard IC50 fitting parameters within the ABASE data fitting software package.
For orientation: In a scintillation proximity assay essentially only radioactivity close to the scintillant gives light.
As usually defined, the IC50 is the concentration at which inhibition is half-maximal. A low value points to greater potency. For `CCN1CCC(N(CC)c2cccc3c2C/C=C/CCc2cc(C)[nH]c(=O)c2CNC3=O)CC1` [Example 44, (E)-10-(ethyl(1-ethylpiperidin-4-yl)amino)-3-methyl-5,6,15,16-tetrahydrobenzo[c]pyrido[4,3-j][1]azacyclododecine-1,14(2H,9H)-dione], the IC50 amounted to 0.079 µM.

Take `CCN(c1cccc2c1C/C=C/CCc1cc(C)[nH]c(=O)c1CNC2=O)C1CCN(Cc2ccn(C)n2)CC1` [Example 45]: the 50% inhibitory concentration (IC50) stood at 0.05 µM.

With `CCOC(=O)C(C)(C)N1CCC(N(CC)c2cccc3c2C/C=C/CCc2cc(C)[nH]c(=O)c2CNC3=O)CC1` [Example 46, (E)-ethyl 2-(4-(ethyl(3-methyl-1,14-dioxo-1,2,5,6,9,14,15,16-octahydrobenzo[c]pyrido[4,3-j][1]azacyclododecin-10-yl)amino)piperidin-1-yl)-2-methylpropanoate], the IC50 worked out at 0.251 µM.

Molecule `CCN(c1cccc2c1C/C=C/CCc1cc(C)[nH]c(=O)c1CNC2=O)C1CCN(CC(F)(F)F)CC1` [Example 47, (E)-10-(ethyl(1-(2,2,2-trifluoroethyl)piperidin-4-yl)amino)-3-methyl-5,6,15,16-tetrahydrobenzo[c]pyrido[4,3-j][1]azacyclododecine-1,14(2H,9H)-dione] gave an IC50 of 0.2 µM.

Take `CCN(c1cccc2c1C/C=C/CCc1cc(C)[nH]c(=O)c1CNC2=O)C1CCN(Cc2cccc(C)n2)CC1` [Example 48, (E)-10-(ethyl(1-((6-methylpyridin-2-yl)methyl)piperidin-4-yl)amino)-3-methyl-5,6,15,16-tetrahydrobenzo[c]pyrido[4,3-j][1]azacyclododecine-1,14(2H,9H)-dione]: the half-inhibitory concentration (IC50) came out at 0.316 µM.

The molecule `CCN(CC)[C@H]1CC[C@H](N(CC)c2cccc3c2C/C=C/CCc2cc(C)[nH]c(=O)c2CNC3=O)CC1` [Example 49, (E)-10-((trans-4-(diethylamino)cyclohexyl)(ethyl)amino)-3-methyl-5,6,15,16-tetrahydrobenzo[c]pyrido[4,3-j][1]azacyclododecine-1,14(2H,9H)-dione] registered an IC50 of 0.158 µM.

The molecule `CCN(c1cccc2c1C/C=C/CCc1cc(C)[nH]c(=O)c1CNC2=O)[C@H]1CC[C@H](N2CCOCC2)CC1` [Example 50, (E)-10-(ethyl(trans-4-morpholinocyclohexyl)amino)-3-methyl-5,6,15,16-tetrahydrobenzo[c]pyrido[4,3-j][1]azacyclododecine-1,14(2H,9H)-dione] registered an IC50 of 0.126 µM.

Take `CCN(c1cccc2c1C/C=C/CCCc1cc(C)[nH]c(=O)c1CNC2=O)[C@H]1CC[C@H](N(C)C)CC1` [Example 53, (E)-11-((trans-4-(dimethylamino)cyclohexyl)(ethyl)amino)-3-methyl-5,6,7,10,16,17-hexahydro-1H-benzo[c]pyrido[4,3-k][1]azacyclotridecine-1,15(2H)-dione]: the IC50 was 0.079 µM.

`CCN(c1cccc2c1C/C=C/CCc1cc(C)[nH]c(=O)c1CNC2=O)[C@H]1CC[C@@H](N(C)C)CC1` [Example 55, (E)-10-((cis-4-(dimethylamino)cyclohexyl)(ethyl)amino)-3-methyl-5,6,15,16-tetrahydrobenzo[c]pyrido[4,3-j][1]azacyclododecine-1,14(2H,9H)-dione] returned an IC50 of 0.251 µM.

In turn, `CCN(c1cccc2c1C/C=C/CCc1cc(C)[nH]c(=O)c1CNC2=O)[C@H]1CC[C@H](NCC(F)F)CC1` [Example 56, (E)-10-((trans-4-((2,2-difluoroethyl)amino)cyclohexyl)(ethyl)amino)-3-methyl-5,6,15,16-tetrahydrobenzo[c]pyrido[4,3-j][1]azacyclododecine-1,14(2H,9H)-dione] displayed an IC50 of 0.126 µM.

As to `CCN(c1cccc2c1C/C=C/CCc1cc(C)[nH]c(=O)c1CNC2=O)[C@H]1CC[C@H](N(C)CC(F)F)CC1` [Example 57, (E)-10-((trans-4-((2,2-difluoroethyl)(methyl)amino)cyclohexyl)(ethyl)amino)-3-methyl-5,6,15,16-tetrahydrobenzo[c]pyrido[4,3-j][1]azacyclododecine-1,14(2H,9H)-dione], the IC50 was 0.1 µM.
